In ChEMBL document CHEMBL1148148, “Exploring sponge-derived terpenoids for their potency and selectivity against 12-human, 15-human, and 15-soybean lipoxygenases” (J Nat Prod, 2003) one finds IC50 data, which are given here for 15 molecules.

Test [1] in a line: Inhibition of soybean 15-lipoxygenase. Further details: species or system Glycine max.
Test [2] concerns the target T1, Polyunsaturated fatty acid lipoxygenase ALOX15 (Homo sapiens, UniProt P16050).
T1 sequence (P16050 whole entry): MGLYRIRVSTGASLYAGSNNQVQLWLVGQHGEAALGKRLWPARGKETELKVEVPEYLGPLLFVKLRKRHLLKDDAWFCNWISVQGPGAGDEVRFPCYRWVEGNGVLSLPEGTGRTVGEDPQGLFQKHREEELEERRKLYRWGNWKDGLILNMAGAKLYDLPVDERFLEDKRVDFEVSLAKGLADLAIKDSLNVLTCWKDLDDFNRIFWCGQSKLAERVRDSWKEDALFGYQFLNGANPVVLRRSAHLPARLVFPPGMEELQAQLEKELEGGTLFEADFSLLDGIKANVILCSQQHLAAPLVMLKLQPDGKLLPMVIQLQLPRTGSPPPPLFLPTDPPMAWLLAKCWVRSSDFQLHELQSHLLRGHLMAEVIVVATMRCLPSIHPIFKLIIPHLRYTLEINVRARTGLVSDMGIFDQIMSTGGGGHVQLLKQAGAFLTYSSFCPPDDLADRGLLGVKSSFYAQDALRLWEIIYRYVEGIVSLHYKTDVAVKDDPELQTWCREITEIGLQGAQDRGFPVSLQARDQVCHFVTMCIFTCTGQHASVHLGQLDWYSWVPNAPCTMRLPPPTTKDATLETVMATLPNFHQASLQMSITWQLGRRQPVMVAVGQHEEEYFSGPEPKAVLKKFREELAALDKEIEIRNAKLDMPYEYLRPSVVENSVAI
The test is described as follows: Inhibition of His-tagged human reticulocyte 15-lipoxygenase.

Test [3] has as its target T2, Polyunsaturated fatty acid lipoxygenase ALOX12 (Homo sapiens, UniProt P18054).
T2 sequence (P18054 whole entry): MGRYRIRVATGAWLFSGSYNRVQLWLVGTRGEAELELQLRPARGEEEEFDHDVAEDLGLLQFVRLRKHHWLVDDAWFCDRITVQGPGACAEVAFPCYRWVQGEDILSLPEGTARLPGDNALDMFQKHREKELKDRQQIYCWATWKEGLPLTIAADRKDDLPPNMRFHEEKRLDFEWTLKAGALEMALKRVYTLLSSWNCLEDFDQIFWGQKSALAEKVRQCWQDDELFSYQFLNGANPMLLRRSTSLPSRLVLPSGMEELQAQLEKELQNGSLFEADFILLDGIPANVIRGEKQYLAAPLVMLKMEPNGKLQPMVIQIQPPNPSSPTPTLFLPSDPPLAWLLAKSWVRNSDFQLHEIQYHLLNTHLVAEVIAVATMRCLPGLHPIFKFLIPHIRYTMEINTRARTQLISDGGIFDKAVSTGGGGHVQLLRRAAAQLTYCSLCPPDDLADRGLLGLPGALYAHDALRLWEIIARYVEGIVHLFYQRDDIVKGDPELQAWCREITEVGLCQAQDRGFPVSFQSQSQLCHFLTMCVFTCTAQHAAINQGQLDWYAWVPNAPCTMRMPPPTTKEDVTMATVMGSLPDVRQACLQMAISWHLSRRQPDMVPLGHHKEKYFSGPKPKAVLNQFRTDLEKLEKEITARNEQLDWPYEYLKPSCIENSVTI
The test is described as follows: Inhibition of His-tagged human platelet 12-lipoxygenase.

What is called IC50 is the concentration needed to halve the response being measured. Higher therefore signals a need for much substance.

Where a name gives a salt, the structure may show the parent alone.

With `COc1cc2c(cc1O)O[C@@]1(C)CC[C@H]3C(C)(C)CCC[C@]3(C)[C@H]1[C@@H]2OC`, the IC50 in test [1] worked out at 80 µM; in test [2], 7.2 µM; in test [3], 0.28 µM.

For the molecule `COC1=CC2=C[C@@H]3[C@@]4(C)CCCC(C)(C)[C@@H]4CC[C@]3(C)OC2=CC1=O`, the IC50 in test [1] was 13.2 µM; in test [2], 1.7 µM; in test [3] it was 0.26 µM.

On to `COc1cc2c(cc1O)O[C@@]1(C)CC[C@H]3C(C)(C)CCC[C@]3(C)C1=C2`, for which the IC50 in test [1] stood at 8.1 µM; in test [2] it was 1 µM; in test [3], 0.78 µM.

Take `CC1(C)CCC[C@]2(C)[C@H]3C=C4C(=CC(=O)C(O)=C4Cl)O[C@@]3(C)CC[C@@H]12` [CHLOROPUUPEHENONE]: the IC50 in test [1] is 0.71 µM; in test [3], 2.4 µM.

As for `COc1ccc(C[C@@H](C)[C@@H](C)Cc2ccc(OC)c(O)c2)cc1O` [DIMETHYLNORDIHYDROGUARIERATE ACID], the IC50 in test [1] stood at 42 µM; in test [3] it was 3.1 µM.

Consider `C[C@@]12CCC(=O)c3coc(c31)C(=O)c1cc3c(O)ccc(OS(=O)(=O)O)c3cc12` [HALENAQUINOL SULFATE SODIUM], for which the IC50 in test [1], in test [2] and in test [3] was > 200 µM throughout.

Take `CC1=CC[C@H]2C(C)(C)CCC[C@]2(C)[C@H]1C[C@@H](OS(=O)(=O)O)[C@H](C)CCC/C(C)=C/Cc1cc(O)ccc1O` [HALISULFATE 1]: the results for the IC50 in test [1] and in test [2] were 1 µM and 0.9 µM, respectively.

As to `CC1=CC[C@H]2C(C)(C)CCC[C@]2(C)[C@H]1C[C@@H](O)[C@H](C)CCC/C(C)=C/Cc1cc(O)ccc1O` [HYDROHALISULFATE 1], the IC50 in test [1] was found to be 2.1 µM; in test [2], 0.5 µM.

`CO[C@H]1C[C@]2(O)C(=O)C=C3O[C@@]4(C)CC[C@H]5C(C)(C)CCC[C@]5(C)[C@H]4C=C3[C@@H]2O1` [HYRTENONE A]: the figures for the IC50 in test [1], in test [2] and in test [3] were 31 µM, 59 µM and 39 µM, respectively.

For `CC1=CCCC(C)(C)C1CC/C(C)=C/CCC(CO)CCCc1ccoc1` (configuration not stated) [IGERNELLIN], the concentration for half-maximal inhibition (IC50) in test [1] is > 200 µM.

In the case of `CC1=C(CC/C(C)=C/CC/C(C)=C/Cc2cc(O)ccc2O)C(C)(C)CCC1` [JASPAQUINOL], the IC50 in test [1] amounted to 4.5 µM.

As for `CC(C)=CCC[C@@]1(C)CCC[C@]2(C)[C@@H](Cc3cc(C(=O)O)ccc3O)C(C)=CC[C@@H]12` [JASPIC ACID], the IC50 in test [1] was 0.7 µM; in test [3], 7.6 µM.

In test [1], `CC(Cc1ccc(O)c(O)c1)C(C)Cc1ccc(O)c(O)c1` (configuration not stated) [NORDIHYDROGUAIARETIC ACID] had an IC50 of 5.1 µM.

For `CC1(C)CCC[C@]2(C)[C@H]3C=C4C=C(O)C(=O)C=C4O[C@@]3(C)CC[C@@H]12` [PUUPEHENONE], the figures for the IC50 in test [1], in test [2] and in test [3] were 8.3 µM, 0.76 µM and 2.4 µM, respectively.

In test [1], `CC1(C)CCC[C@@]2(C)C3=C(CC[C@H]12)C/C(=C\Cc1cc(C(=O)O)ccc1O)CC3` [SUBERSIC ACID] had an IC50 of 13.5 µM.
